Legend:
CYP1A2 = molecular target: T1, CYP1A2 (Homo sapiens, UniProt P05177); experiment: Inhibition of human recombinant CYP1A2 expressed in baculovirus-infected insect microsomes at 2 uM; assay type: ADME, Microsome
T1 sequence (P05177 whole entry): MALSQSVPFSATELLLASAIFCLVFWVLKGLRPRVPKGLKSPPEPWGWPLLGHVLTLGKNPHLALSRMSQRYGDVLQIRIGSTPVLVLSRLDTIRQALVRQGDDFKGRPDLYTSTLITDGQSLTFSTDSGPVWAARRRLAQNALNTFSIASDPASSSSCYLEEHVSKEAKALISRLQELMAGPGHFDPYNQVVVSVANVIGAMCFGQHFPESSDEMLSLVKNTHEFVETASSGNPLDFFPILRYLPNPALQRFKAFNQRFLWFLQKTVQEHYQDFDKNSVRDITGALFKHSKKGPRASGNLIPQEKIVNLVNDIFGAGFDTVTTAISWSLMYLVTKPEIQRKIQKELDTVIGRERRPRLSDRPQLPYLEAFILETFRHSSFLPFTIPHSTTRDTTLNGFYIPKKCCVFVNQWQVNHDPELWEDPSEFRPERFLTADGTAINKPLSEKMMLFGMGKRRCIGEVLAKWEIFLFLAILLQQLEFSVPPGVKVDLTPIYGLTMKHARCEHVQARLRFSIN

CYP17 = molecular target: T2, CYP17 (Homo sapiens, UniProt P05093); experiment: in vitro; details: human CYP17 expressed in Escherichia coli
T2 sequence (P05093 whole entry): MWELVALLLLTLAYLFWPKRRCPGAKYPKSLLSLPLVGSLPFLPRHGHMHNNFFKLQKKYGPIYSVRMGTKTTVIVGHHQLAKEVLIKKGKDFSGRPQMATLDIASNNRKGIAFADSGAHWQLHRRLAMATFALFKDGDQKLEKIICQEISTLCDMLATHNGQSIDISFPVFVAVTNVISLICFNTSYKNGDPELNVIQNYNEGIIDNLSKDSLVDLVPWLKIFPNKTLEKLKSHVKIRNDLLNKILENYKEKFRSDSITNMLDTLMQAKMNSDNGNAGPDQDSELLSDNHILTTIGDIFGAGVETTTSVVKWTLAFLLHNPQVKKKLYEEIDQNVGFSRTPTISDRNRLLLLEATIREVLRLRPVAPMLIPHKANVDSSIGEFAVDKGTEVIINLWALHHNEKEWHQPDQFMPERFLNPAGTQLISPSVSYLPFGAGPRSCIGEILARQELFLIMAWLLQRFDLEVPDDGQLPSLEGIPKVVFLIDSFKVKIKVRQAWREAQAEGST
Description: Inhibition of human CYP17 expressed in Escherichia coli at 2.5 uM

[1] = AUC (0 to infinity) in Wistar rat at 1 mg/kg, iv; assay type: ADME, organism-based; design: time infinity, dose 1 mg/kg, route intravenous; details: plasma
[2] = Cmax in Wistar rat at 25 mg/kg, po; assay type: ADME, organism-based; design: dose 25 mg/kg, route oral; details: in vivo
[3] = Terminal half life in Wistar rat at 5 mg/kg, po by cassette dosing; assay type: ADME, organism-based; design: dose 5 mg/kg, route oral; details: in vivo, read-out: beta t1/2 (converted)
[4] = Protein binding in human plasma at 3 uM after 1 hr; assay type: ADME, cell-free; details: read-out: PPB (converted)
Cytochrome P450 1A2 = molecular target: T3, Cytochrome P450 1A2 (Homo sapiens, UniProt P05177)
T3 sequence (P05177 whole entry): T1 sequence (P05177 whole entry)

CYP19 (aromatase) = molecular target: T4, CYP19 (aromatase) (Homo sapiens, UniProt P11511); experiment: Inhibition of human placental CYP19 at 500 nM; assay type: functional
T4 sequence (P11511 whole entry): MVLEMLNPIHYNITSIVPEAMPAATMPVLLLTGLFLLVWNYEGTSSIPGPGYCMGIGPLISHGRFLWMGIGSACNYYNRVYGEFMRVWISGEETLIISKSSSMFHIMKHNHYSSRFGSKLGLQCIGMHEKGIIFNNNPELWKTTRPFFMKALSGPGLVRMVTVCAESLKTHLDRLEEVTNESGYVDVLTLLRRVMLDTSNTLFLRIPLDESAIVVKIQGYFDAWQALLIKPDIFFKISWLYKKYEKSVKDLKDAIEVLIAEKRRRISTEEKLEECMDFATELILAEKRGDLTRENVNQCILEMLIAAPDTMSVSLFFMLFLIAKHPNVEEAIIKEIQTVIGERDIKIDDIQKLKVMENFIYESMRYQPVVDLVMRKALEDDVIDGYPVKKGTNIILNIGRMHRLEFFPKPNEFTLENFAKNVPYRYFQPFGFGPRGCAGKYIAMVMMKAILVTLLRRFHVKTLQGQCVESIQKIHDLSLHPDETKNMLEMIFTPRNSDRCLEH

[5] = Terminal half life in Wistar rat at 1 mg/kg, iv; assay type: ADME, organism-based; design: dose 1 mg/kg, route intravenous; details: in vivo, read-out: beta t1/2 (converted)
[6] = AUC (0 to infinity) in Wistar rat at 25 mg/kg, po; assay type: ADME, organism-based; design: time infinity, dose 25 mg/kg, route oral; details: plasma
[7] = Terminal half life in Wistar rat at 25 mg/kg, po; assay type: ADME, organism-based; design: dose 25 mg/kg, route oral; details: in vivo, read-out: beta t1/2 (converted)
Cytochrome P450 2B6 = molecular target: T5, Cytochrome P450 2B6 (Homo sapiens, UniProt P20813); experiment: Inhibition of human recombinant CYP2B6 expressed in baculovirus-infected insect microsomes; assay type: ADME, Microsome
T5 sequence (P20813 whole entry): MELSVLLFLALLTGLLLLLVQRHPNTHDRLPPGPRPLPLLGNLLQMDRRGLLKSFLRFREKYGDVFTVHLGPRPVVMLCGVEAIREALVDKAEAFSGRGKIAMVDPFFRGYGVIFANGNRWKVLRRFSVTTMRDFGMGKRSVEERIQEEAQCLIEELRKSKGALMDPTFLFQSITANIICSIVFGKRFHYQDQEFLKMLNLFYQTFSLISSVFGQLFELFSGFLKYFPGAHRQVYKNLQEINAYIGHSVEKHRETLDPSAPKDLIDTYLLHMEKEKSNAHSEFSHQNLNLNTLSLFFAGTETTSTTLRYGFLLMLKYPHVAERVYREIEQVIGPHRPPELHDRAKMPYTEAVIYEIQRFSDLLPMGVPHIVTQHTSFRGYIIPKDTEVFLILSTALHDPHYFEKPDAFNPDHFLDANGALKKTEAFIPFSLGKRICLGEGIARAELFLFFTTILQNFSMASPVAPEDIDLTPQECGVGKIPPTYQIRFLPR

[8] = Tmax in Wistar rat at 25 mg/kg, po; assay type: ADME, organism-based; design: dose 25 mg/kg, route oral; details: in vivo
Cytochrome P450 3A4 = Cytochrome P450 3A4 (Homo sapiens, UniProt P08684); experiment: Inhibition of human recombinant CYP3A4 expressed in baculovirus-infected insect microsomes; assay type: ADME, Microsome
Cytochrome P450 3A4, sequence (P08684 whole entry): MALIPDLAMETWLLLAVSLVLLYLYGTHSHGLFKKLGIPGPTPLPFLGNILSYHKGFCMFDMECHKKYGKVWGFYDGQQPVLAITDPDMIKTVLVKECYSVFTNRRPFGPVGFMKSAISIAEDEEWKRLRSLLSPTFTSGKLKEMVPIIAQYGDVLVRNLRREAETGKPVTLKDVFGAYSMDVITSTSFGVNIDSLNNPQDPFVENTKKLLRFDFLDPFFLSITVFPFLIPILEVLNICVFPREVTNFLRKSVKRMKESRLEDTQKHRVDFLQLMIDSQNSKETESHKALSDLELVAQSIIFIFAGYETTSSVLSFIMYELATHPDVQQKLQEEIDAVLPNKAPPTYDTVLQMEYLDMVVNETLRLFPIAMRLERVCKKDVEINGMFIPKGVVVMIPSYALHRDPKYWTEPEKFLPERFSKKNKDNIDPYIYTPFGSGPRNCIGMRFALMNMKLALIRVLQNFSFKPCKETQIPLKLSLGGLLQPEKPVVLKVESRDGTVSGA

[9] = Tmax in Wistar rat at 5 mg/kg, po by cassette dosing; assay type: ADME, organism-based; design: dose 5 mg/kg, route oral; details: in vivo
[10] = Cmax in Wistar rat at 5 mg/kg, po by cassette dosing; assay type: ADME, organism-based; design: dose 5 mg/kg, route oral; details: in vivo
[11] = Oral bioavailability in Wistar rat at 25 mg/kg; details: in vivo
[12] = Protein binding in rat plasma at 3 uM after 1 hr; assay type: ADME, cell-free; details: read-out: PPB (converted)
Cytochrome P450 2C9 = Cytochrome P450 2C9 (Homo sapiens, UniProt P11712); experiment: Inhibition of human recombinant CYP2C9 expressed in baculovirus-infected insect microsomes; assay type: ADME, Microsome
Cytochrome P450 2C9, sequence (P11712 whole entry): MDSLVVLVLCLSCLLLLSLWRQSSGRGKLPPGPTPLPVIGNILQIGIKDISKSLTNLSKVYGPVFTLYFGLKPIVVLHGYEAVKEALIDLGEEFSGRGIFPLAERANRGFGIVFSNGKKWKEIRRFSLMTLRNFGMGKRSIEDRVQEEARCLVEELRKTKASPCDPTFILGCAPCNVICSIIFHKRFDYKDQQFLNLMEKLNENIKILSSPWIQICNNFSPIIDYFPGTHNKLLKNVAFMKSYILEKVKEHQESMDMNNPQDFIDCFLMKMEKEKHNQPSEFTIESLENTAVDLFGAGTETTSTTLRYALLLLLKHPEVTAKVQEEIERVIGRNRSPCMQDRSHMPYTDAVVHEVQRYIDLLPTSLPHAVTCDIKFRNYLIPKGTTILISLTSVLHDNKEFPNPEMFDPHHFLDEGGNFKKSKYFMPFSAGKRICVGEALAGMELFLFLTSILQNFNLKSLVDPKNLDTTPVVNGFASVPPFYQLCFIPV

Cytochrome P450 2D6 = Cytochrome P450 2D6 (Homo sapiens, UniProt P10635); experiment: Inhibition of human recombinant CYP2D6 expressed in baculovirus-infected insect microsomes; assay type: ADME, Microsome; details: read-out: IC50
Cytochrome P450 2D6, sequence (P10635 whole entry): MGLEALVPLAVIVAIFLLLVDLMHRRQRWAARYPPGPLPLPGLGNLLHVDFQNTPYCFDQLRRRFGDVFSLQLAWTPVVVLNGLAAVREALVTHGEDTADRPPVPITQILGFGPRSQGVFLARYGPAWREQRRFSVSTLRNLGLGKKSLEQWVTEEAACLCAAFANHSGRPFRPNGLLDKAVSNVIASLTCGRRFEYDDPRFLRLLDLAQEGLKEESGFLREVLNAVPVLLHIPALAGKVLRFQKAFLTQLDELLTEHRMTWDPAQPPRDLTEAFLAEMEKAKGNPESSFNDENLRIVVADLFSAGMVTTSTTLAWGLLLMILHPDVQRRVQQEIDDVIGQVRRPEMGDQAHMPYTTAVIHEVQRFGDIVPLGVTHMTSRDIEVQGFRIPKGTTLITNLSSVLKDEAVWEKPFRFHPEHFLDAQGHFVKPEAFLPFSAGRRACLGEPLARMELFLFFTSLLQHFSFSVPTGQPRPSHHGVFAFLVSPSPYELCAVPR

[13] = AUC (0 to infinity) in Wistar rat at 5 mg/kg, po by cassette dosing; assay type: ADME, organism-based; design: time infinity, dose 5 mg/kg, route oral; details: plasma

- inhibition at 2 µM (CYP1A2): 50%
- inhibition at 2.5 µM (CYP17): 41%
- AUC(0-inf) [1]: 270 ng·h/mL
- Cmax [2]: 1540 ng/mL
- half-life [3]: 3.8 h
- fraction unbound at 1 h, 3 µM [4]: 0.39
- IC50 (Cytochrome P450 1A2): 1.95 µM
- inhibition at 0.5 µM (CYP19 (aromatase)): 21%
- half-life [5]: 1.7 h
- AUC(0-inf) [6]: 4760 ng·h/mL
- half-life [7]: 1.2 h
- IC50 (Cytochrome P450 2B6): < 50 µM
- Tmax [8]: 1 h
- IC50 (Cytochrome P450 3A4): 127 µM
- Tmax [9]: 4 h
- Cmax [10]: 261 ng/mL
- bioavailability [11]: 71%
- fraction unbound at 1 h, 3 µM [12]: 0.4
- IC50 (Cytochrome P450 2C9): 58.9 µM
- IC50 (Cytochrome P450 2D6): 171 µM
- AUC(0-inf) [13]: 1750 ng·h/mL
SMILES: O=C1CCc2cc(-c3cccnc3)ccc2N1

From ChEMBL document CHEMBL1151717, “In vivo active aldosterone synthase inhibitors with improved selectivity: lead optimization providing a series of pyridine substituted 3,4-dihydro-1H-quinolin-2-one derivatives” (J Med Chem, 2008)
